Patent US4147787A, “4,5,6,7-Tetrahydro-thieno[2,3-c]-and [3,2-c]-pyridines, and therapeutic compositions containing the same” (Parcor, priority 1977, dated 1979)

Tested on: thrombus
Assay: Anti-thrombosis properties (metal helix in vena cava inferior, based on Friedman)
Format: in vivo, female Wistar rats
Conditions: from Table IV
Text: The technique used is based on that disclosed by Friedman (Amer. J. Med. Sci., 253, 83, 1967). […] A 1.8 cm long sharp metal helix is introduced in the lumen of the vessel at the level of the renal fork and "screwed" toward the iliac veins. Five hours later, the animal is again anesthetized with ether. […] The helix, together with the thrombus it retains, is taken out after carefully opening the vena cava throughout the length involved; it is then dried by repeated dabbing with filter paper and is weighed a first time. Immediately thereafter, the helix is freed from its thrombus in a physiological saline bath, and is then again dried and weighed. The difference in weight gives the weight of the thrombus. It was found on histological examination that these were white thrombi.
Different groups of 10 rats each are treated by gastric intubation with one of the test derivatives, 48 hours, 24 hours and 2 hours prior to the implantation of the metal helix. Samples were taken five hours after said implantation.
Identical tests were carried out with dipyridamole and acetylsalicylic acid.

SMILES	anti-thrombosis activity (in words)
CC(=O)Oc1ccccc1C(=O)O [acetylsalicylic acid]	little activity
OCCN(CCO)c1nc(N2CCCCC2)c2nc(N(CCO)CCO)nc(N3CCCCC3)c2n1 [dipyridamole]	no activity
